Results reported in paper PMC11375794, “Discovery of new Hsp90–Cdc37 protein–protein interaction inhibitors: in silico screening and optimization of anticancer activity” (RSC Advances, 2024).

Key:
leukemia cell line THP-1 = assay: MTS cell viability (antiproliferative) assay in THP-1; type: cell-based; conditions: Homo sapiens, THP-1, 72 hours, mean ± SD
Method: (§1) Hormone-positive breast cancer cell line MCF-7 (ATCC-HTB-22; ATCC) was grown in Dulbecco's Modified Eagle's Medium (DMEM), while Ewing sarcoma cell line SK-N-MC (a kind gift from Beat Schäfer) and THP-1 (ATCC-TIB-202; ATCC) cells were grown in Roswell Park Memorial Institute (RPMI) 1640. The medium was supplemented with 10% heat-inactivated fetal bovine serum (Gibco, Thermo Fisher Scientific, Waltham, MA, USA), 100 U per mL penicillin, 100 μg per mL streptomycin, and 2 mM L-glutamine (all from Sigma-Aldrich, St. Louis, MO, USA). All cell lines were incubated at 37 °C in a 5% CO2 atmosphere.
(§2) The antiproliferative activity of the compounds was evaluated against MCF-7 (ATCC-HTB-22; ATCC), SK-N-MC (a kind gift from Beat Schäfer) and THP-1 (ATCC-TIB-202; ATCC) cancer cell lines using the MTS assay (Promega, Madison, WI, USA). Cells were seeded in 96-well plates at a density of 2 × 10^4 cells per mL in 100 μL of growth medium for THP-1 and were treated with compounds and controls directly, while 3 × 10^3 cells per mL for MCF-7 and SK-N-MC were seeded in 100 μL of growth medium and allowed to adhere overnight following the treatment. In all cases the cells were treated with respective newly prepared compounds, positive controls (17-DMAG for MCF-7 and SK-N-MC; PU-H71 for THP-1) and a vehicle control (0.5% DMSO). The incubation time after treatment was 72 hours, then CellTiter96® Aqueous One Solution Reagent (Promega, Madison, WI, USA) was added to each well. Following a 3 hours incubation, absorbance was measured at 492 nm using BioTek's Synergy™ 4 Hybrid Microplate Reader (Winooski, VT, USA). The measurements were performed in two biological repetitions and each time the experiment was performed in a triplicate. The IC50 values, representing the concentration of inhibitor required for half-maximal inhibition, are the average of three independent experiments and were calculated using GraphPad Prism 9.5.0 software (San Diego, CA, USA).

[1] = system: Ewing sarcoma cell line SK-N-MC; assay: MTS cell viability (antiproliferative) assay in SK-N-MC; type: cell-based; conditions: 72 hours, mean ± SD; for IC50: Homo sapiens, SK-N-MC
Method: as §1, §2

[2] = system: MCF-7 breast cancer cell line; assay: MTS cell viability (antiproliferative) assay in MCF-7; type: cell-based; conditions: Homo sapiens, MCF7, 72 h, MTS assay, 72 hours, mean ± SD
Method: as §1, §2

full-length Hsp90β = biological target: T1, full-length Hsp90β (Homo sapiens, UniProt P08238); assay: Microscale thermophoresis (MST) binding to Hsp90β
T1 construct: For the protein expression of full-length Hsp90β, we received plasmids as a kind gift; made in house; host or cells: Escherichia coli strain Rosetta
Method: For the protein expression of full-length Hsp90β, we received plasmids as a kind gift from Dr Asta Zubriené at the Institute of Biotechnology, Vilnius University, Lithuania. Hsp90β, tagged with N-terminal 6×His-tag, was expressed in Escherichia coli strain Rosetta. The cells were cultured in LB media supplemented with kanamycin (50 μg mL^−1) and chloramphenicol (34 μg mL^−1) at 37 °C, and protein expression was initiated with 0.5 mM isopropyl β-D-1-thiogalactopyranoside (IPTG) when the OD600 reached 0.8. Following induction, the cells were incubated for 16 hours at 18 °C before being harvested by centrifugation. The cells were resuspended in a lysis buffer containing 40 mM potassium phosphate pH 8.0, 400 mM KCl, 10 mM imidazole, and protease inhibitors (Sigma), and then lysed by sonication. After centrifugation, the proteins were initially purified using a Ni^2+-affinity HisTrap column (GE Healthcare). Impurities were washed away with lysis buffer containing 20–40 mM imidazole, and Hsp90β was subsequently eluted with lysis buffer containing 300 mM imidazole. The purification process continued with size exclusion chromatography (SEC) using a Superdex-200 (16/600) column (GE Healthcare) and a running buffer of 50 mM Tris pH 7.5 at room temperature, 300 mM KCl. The purity of the fractions was confirmed by SDS-PAGE, and they were then concentrated. For the NMR experiments, Hsp90β was dialyzed against NMR buffer (50 mM potassium phosphate pD 7.5, 100 mM KCl, 2 mM DTT (98%, D10) in D2O) and subsequently frozen in liquid nitrogen.
(§3) The full-length Hsp90β was labeled using the Monolith His-Tag Labeling Kit RED-tris-NTA following the manufacturer's instructions (NanoTemper Technologies GmbH, Munich, Germany). The proteins were first diluted to a concentration of 8 nM in assay buffer (50 mM Tris–HCl, pH 7.4, containing 150 mM NaCl, 5% ethanol, and 10 mM MgCl2). To determine the Kd values, the proteins were mixed with the test compounds in a 1 : 1 ratio as stated in the manufacturers protocol. The final concentration of Hsp90β was 4 nM, with compounds added in the following ranges: 1000 μM to 5.86 μM for 8c; 312.5 μM to 0.15 μM for 13g and 125 μM to 3.91 μM for 1. Two independent Kd determinations were performed for compounds 8c and 13g. […] Next, Cdc37 (AR09008PUN, OriGene Technologies, Inc., Rockville, MD, USA) was acquired for the purpose of PPI inhibition evaluation between full-length Hsp90β and Cdc37. […] In all experiments the compounds were incubated with the proteins for 15 minutes in the dark at room temperature. The mixtures were then loaded into Monolith NT.115 Premium Capillaries (NanoTemper Technologies GmbH, Munich, Germany). Thermophoresis was induced at 1475 ± 15 nm and measured using a Monolith NT.115 pico instrument (NanoTemper Technologies GmbH, Munich, Germany). Measurements were conducted at ambient temperature (24–25 °C), with excitation power set to 20% and MST power set to 40%, and a laser on time of 5 seconds. To calculate the Kd values, the average fluorescence responses for each concentration were plotted against the logarithm of compound concentrate on using GraphPad Prism software (GraphPad Software, Inc., La Jolla, CA).

[3] = Solubility as observed in MST; type: physicochemical; conditions: MST assay buffer
Method: as §3, with “The mixtures were then loaded into Monolith NT.115 Premium Capillaries (NanoTemper Technologies GmbH, Munich, Germany).” left out, “Measurements were conducted at ambient temperature (24–25 °C), with excitation power set to 20% and MST power set to 40%, and a laser on time of 5 seconds.” left out

T1 sequence (P08238 whole entry): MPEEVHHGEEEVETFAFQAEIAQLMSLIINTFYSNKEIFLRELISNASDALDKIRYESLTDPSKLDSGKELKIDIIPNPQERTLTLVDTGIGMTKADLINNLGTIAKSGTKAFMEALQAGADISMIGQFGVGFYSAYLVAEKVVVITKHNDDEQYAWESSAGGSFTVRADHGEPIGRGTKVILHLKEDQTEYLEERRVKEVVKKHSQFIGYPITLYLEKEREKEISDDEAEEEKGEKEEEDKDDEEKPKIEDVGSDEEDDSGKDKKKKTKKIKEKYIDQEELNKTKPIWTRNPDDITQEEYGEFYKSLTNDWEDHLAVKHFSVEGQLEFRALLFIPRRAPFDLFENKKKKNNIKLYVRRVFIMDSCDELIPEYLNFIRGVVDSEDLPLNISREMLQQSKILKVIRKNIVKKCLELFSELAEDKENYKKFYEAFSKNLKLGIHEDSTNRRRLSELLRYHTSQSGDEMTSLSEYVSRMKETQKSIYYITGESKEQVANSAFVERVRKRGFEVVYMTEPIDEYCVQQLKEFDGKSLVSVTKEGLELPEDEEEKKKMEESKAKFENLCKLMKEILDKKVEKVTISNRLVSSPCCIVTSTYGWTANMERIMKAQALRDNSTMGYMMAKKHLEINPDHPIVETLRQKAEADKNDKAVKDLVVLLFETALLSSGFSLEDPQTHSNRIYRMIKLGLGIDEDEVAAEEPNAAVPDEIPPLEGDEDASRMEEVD

IC50 [2] [µM]	Structure (SMILES)	other results
22.5 ± 3.3	O=C(NCCOc1ccccc1)c1cccc(Nc2cc(N3CCNCC3)ncn2)c1 [Compound 13b, N-(2-Phenoxyethyl)-3-((6-(piperazin-1-yl)pyrimidin-4-yl)amino)benzamide]	IC50 (leukemia cell line THP-1): > 50 µM; IC50 [1]: 22.2 ± 0.2 µM
14.6 ± 4.5	O=C(NCCOc1ccccc1)c1cccc(Nc2cc(N3CCCC3)ncn2)c1 [Compound 11b, N-(2-Phenoxyethyl)-3-((6-(pyrrolidin-1-yl)pyrimidin-4-yl)amino)benzamide]	IC50 (leukemia cell line THP-1): > 50 µM; IC50 [1]: 26.9 ± 1 µM
> 50	O=C(NCCOc1ccccc1)c1ccc(Nc2cc(N3CCCC3)ncn2)cc1 [Compound 11g, N-(2-Phenoxyethyl)-4-((6-(pyrrolidin-1-yl)pyrimidin-4-yl)amino)benzamide]	IC50 (leukemia cell line THP-1): > 50 µM; SK-N-MC IC50 [1]: inactive; IC50 [1]: > 50 µM
36.7 ± 6.1	CN(Cc1ccccc1)C(=O)c1cccc(Nc2cc(N3CCCC3)ncn2)c1 [Compound 11c, N-Benzyl-N-methyl-3-((6-(pyrrolidin-1-yl)pyrimidin-4-yl)amino)benzamide]	–
> 50	O=C(NCCc1ccccc1)c1ccc(Nc2cc(N3CCCC3)ncn2)cc1 [Compound 11f, N-Phenethyl-4-((6-(pyrrolidin-1-yl)pyrimidin-4-yl)amino)benzamide]	–
38.3 ± 4.9	CN(CCc1ccccc1)C(=O)c1ccc(Nc2cc(N3CCNCC3)ncn2)cc1 [Compound 13i, N-Methyl-N-phenethyl-4-((6-(piperazin-1-yl)pyrimidin-4-yl)amino)benzamide]	–
20.6 ± 3	O=C(NCCc1ccccc1)c1cccc(Nc2cc(N3CCCC3)ncn2)c1 [Compound 11a, N-Phenethyl-3-((6-(pyrrolidin-1-yl)pyrimidin-4-yl)amino)benzamide]	–
14.5 ± 4.7	CN(Cc1ccccc1)C(=O)c1ccc(Nc2cc(N3CCNCC3)ncn2)cc1 [Compound 13h, N-Benzyl-N-methyl-4-((6-(piperazin-1-yl)pyrimidin-4-yl)amino)benzamide]	–
> 50	CN(CCOc1ccccc1)C(=O)c1cccc(Nc2cc(N3CCNCC3)ncn2)c1 [Compound 13e, N-Methyl-N-(2-phenoxyethyl)-3-((6-(piperazin-1-yl)pyrimidin-4-yl)amino)benzamide]	–
34.1 ± 2.9	CN(CCOc1ccccc1)C(=O)c1cccc(Nc2cc(N3CCCC3)ncn2)c1 [Compound 11e, N-Methyl-N-(2-phenoxyethyl)-3-((6-(pyrrolidin-1-yl)pyrimidin-4-yl)amino)benzamide]	–

The remaining lines, values behind:

Structure (SMILES)	IC50 [2] [µM]	other results
CN(Cc1ccccc1)C(=O)c1csc(Nc2cc(N3CCCC3)ncn2)n1 [Compound 6a, N-Benzyl-N-methyl-2-((6-(pyrrolidin-1-yl)pyrimidin-4-yl)amino)thiazole-4-carboxamide]	20.8 ± 2.2	–
Cc1nc(Nc2nc(C(=O)N(C)CCOc3ccccc3)cs2)cc(C2CCCN(CC#N)C2)n1 (centres unmarked) [Compound 1]	29.5 ± 5.4	concentrations at which an increase in binding could be detected (full-length Hsp90β): above 39 μM; highest concentration without compound-induced protein aggregation (full-length Hsp90β): 125 µM; binding to Hsp90β (qualitative) (full-length Hsp90β; 125 μM to 3.91 μM): confirmed qualitatively; IC50 (leukemia cell line THP-1): > 50 µM; IC50 [1]: 25 ± 0.4 µM; solubility [3]: poor
COc1ccccc1OCCN(C)C(=O)c1csc(Nc2cc(C3CCCN(CC#N)C3)nc(C)n2)n1 (centres unmarked) [Compound 3]	34.9 ± 2.7	–
CN(CCOc1ccccc1)C(=O)c1csc(Nc2cc(N3CCCC3)ncn2)n1 [Compound 6c, N-Methyl-N-(2-phenoxyethyl)-2-((6-(pyrrolidin-1-yl)pyrimidin-4-yl)amino)thiazole-4-carboxamide]	28.1 ± 1.4	IC50 (leukemia cell line THP-1): > 50 µM; IC50 [1]: 26.2 ± 0.4 µM
CN(CCc1ccccc1)C(=O)c1csc(Nc2cc(N3CCNCC3)ncn2)n1 [Compound 8b, N-Methyl-N-phenethyl-2-((6-(piperazin-1-yl)pyrimidin-4-yl)amino)thiazole-4-carboxamide]	27.3 ± 2	–
O=C(NCCOc1ccccc1)c1ccc(Nc2cc(N3CCOCC3)ncn2)cc1 [Compound 20, 4-((6-Morpholinopyrimidin-4-yl)amino)-N-(2-phenoxyethyl)benzamide]	> 50	–
O=C(NCCOc1ccccc1)c1ccc(Nc2cc(N3CCCCC3)ncn2)cc1 [Compound 19, N-(2-Phenoxyethyl)-4-((6-(piperidin-1-yl)pyrimidin-4-yl)amino)benzamide]	> 50	–
